# Data as given in ChEMBL document CHEMBL6096696, “Structure-Activity Relationship Studies of an Autophagy Inhibitor That Targets the ATG14L-Beclin1 Protein-Protein Interaction Reveal Modifications That Improve Potency and Solubility and Maintain Selectivity” (J Med Chem, 2025).
# Activity calls are given as the source filed them. The rule behind the calls is not given here.
# Columns and labels:
# [1] = Selectivity ratio of inhibition of C-terminal Nano-luc tagged UVRAG/C-terminal Halo-tagged Beclin 1 (unknown origin) PPI tranfected with HEK293T cells to inhibition of C-terminal Nano-luc tagged ATG14L/C-terminal Halo-tagged Beclin 1 (unknown origin) PPI tranfected with HEK293T cells
# [2] = tested on: HEK293T; assay: Inhibition of C-terminal Nano-luc tagged UVRAG/C-terminal Halo-tagged Beclin 1 (unknown origin) PPI tranfected with HEK293T cells using […] at 100 uM incubated for 24 hrs by […] assay relative to control; type: cell-based; conditions: Homo sapiens, values are per cent of control
# [3] = tested on: A549; assay: Inhibition of autophagy in human A549 cells assessed as increase in fluorescence at 100 uM preincubated with DQ-BSA for 1 hr followed by compound addition and measured after 4 hrs by Hoechst 33342 staining based automated fluorescence microscopy analysis; type: functional, cell-based
# [4] = tested on: HeLa; assay: Cytotoxicity against human HeLa cells expressing eGFP-LC3 at 100 uM; type: functional, cell-based
# [5] = tested on: HEK293T; assay: Inhibition of C-terminal Nano-luc tagged ATG14L/C-terminal Halo-tagged Beclin 1 (unknown origin) PPI tranfected with HEK293T cells using […] at 100 uM incubated for 24 hrs by […] assay relative to control; type: cell-based; conditions: Homo sapiens, values are per cent of control
# [6] = Inhibition of C-terminal Nano-luc tagged ATG14L/C-terminal Halo-tagged Beclin 1 (unknown origin) PPI tranfected with HEK293T cells using […] incubated for 24 hrs by […] assay; type: cell-based, Homo sapiens
# [7] = Kinetic aqueous solubility of compound in PBS at pH 7.4 by absorbance based analysis; type: physicochemical; conditions: read-out: Kinetic_solubility
# [8] = tested on: HeLa; assay: Inhibition of autophagy in human HeLa cells expressing eGFP-LC3 at 50 uM preincubated for 20 hrs followed by chloroquine addition and measured after 4 hrs by Hoechst 33342 staining based automated fluorescence microscopy analysis; type: functional, cell-based; conditions: time 24.0 hrs
# [9] = tested on: A549; assay: Inhibition of autophagy in human A549 cells assessed as increase in fluorescence at 12.5 uM preincubated with DQ-BSA for 1 hr followed by compound addition and measured after 4 hrs by Hoechst 33342 staining based automated fluorescence microscopy analysis; type: functional, cell-based
# [10] = tested on: HeLa; assay: Inhibition of autophagy in human HeLa cells expressing eGFP-LC3 assessed as increase in LC3-II at 100 uM preincubated for 20 hrs followed by chloroquine addition and measured after 4 hrs by Hoechst 33342 staining based automated fluorescence microscopy analysis; type: functional, cell-based; conditions: time 24.0 hrs
# [11] = target: Beclin 1-associated autophagy-related key regulator (Homo sapiens) (UniProt Q6ZNE5); assay: Induction of stabilization of ATG14L in human A549 cells assessed as increase in melting temperature at 100 uM incubated for 24 hrs by CETSA method; type: cell-based
# Sequence of Beclin 1-associated autophagy-related key regulator (Homo sapiens) (Q6ZNE5 whole entry): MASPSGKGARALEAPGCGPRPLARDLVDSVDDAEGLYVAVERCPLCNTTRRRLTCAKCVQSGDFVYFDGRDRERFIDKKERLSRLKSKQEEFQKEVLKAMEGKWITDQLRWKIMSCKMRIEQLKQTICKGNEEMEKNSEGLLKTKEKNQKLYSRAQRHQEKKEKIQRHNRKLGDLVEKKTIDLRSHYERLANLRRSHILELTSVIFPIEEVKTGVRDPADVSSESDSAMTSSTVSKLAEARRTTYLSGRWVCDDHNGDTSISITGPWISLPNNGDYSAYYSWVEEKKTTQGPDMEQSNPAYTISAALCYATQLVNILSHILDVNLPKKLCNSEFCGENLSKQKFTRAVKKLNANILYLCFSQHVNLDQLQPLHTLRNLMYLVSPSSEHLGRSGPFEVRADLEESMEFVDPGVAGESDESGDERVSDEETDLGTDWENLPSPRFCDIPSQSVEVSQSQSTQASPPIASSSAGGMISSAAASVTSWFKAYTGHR
# [12] = tested on: A549; assay: Inhibition of autophagy in human A549 cells assessed as increase in fluorescence at 100 uM measured after 4 hrs by Hoechst 33342 staining based […] microscopy analysis; type: functional, cell-based
# [13] = tested on: HeLa; assay: Inhibition of autophagy in human HeLa cells expressing eGFP-LC3 assessed as decrease in GFP puncta/cell at 100 uM preincubated for 20 hrs followed by chloroquine addition and measured after 4 hrs by Hoechst 33342 staining based automated fluorescence microscopy analysis; type: functional; conditions: time 24.0 hrs
# [14] = Inhibition of C-terminal Nano-luc tagged UVRAG/C-terminal Halo-tagged Beclin 1 (unknown origin) PPI tranfected with HEK293T cells using […] incubated for 24 hrs by […] assay; type: cell-based, Homo sapiens
# [15] = tested on: A549; assay: Inhibition of autophagy in human A549 cells assessed as increase in fluorescence at 100 nM preincubated with DQ-BSA for 1 hr followed by compound addition and measured after 4 hrs by Hoechst 33342 staining based automated fluorescence microscopy analysis; type: functional, cell-based
# [16] = tested on: A549; assay: Inhibition of autophagy in human A549 cells assessed as increase in fluorescence at 20 uM preincubated with DQ-BSA for 1 hr followed by compound addition and measured after 4 hrs by Hoechst 33342 staining based automated fluorescence microscopy analysis; type: functional, cell-based
SMILES,Selectivity ratio [1],"residual binding, % of control [2] [%]",Activity [4],"residual binding, % of control [5] [%]",IC50 [6] [µM],solubility kinetic [7] [µM],further results
CCCN1C(=O)COc2ccc(-c3ccc(Cl)cc3Cl)cc21,1.25,82.6,Active,65.8,28.8,> 100,inhibition [3]: Active
O=C1COc2ccc(-c3ccccc3C(F)(F)F)cc2N1Cc1noc(C2CCC2)n1,1.27,98,Active; Compound Showed Less Cytotoxicity,77.4,,> 100,
O=C1COc2ccc(-c3ccc(Cl)cc3Cl)cc2N1Cc1noc(C2CCC2)n1,1.17,105,Active,89.7,,> 100,inhibition [8]: inactive
CCCN1C(=O)COc2ccc(-c3ccccc3C)cc21,1.3,84.6,Active,65,42.4,> 100,inhibition [3]: Active
Nc1ncc(-c2ccnc(Nc3ccncc3)n2)c(CC2CC2)n1,,,,,,,inhibition [9]: inactive
CC(C)c1ccccc1-c1ccc2c(c1)N(Cc1noc(C3CCC3)n1)C(=O)CO2,1.29,92.9,Active; Compound Showed Less Cytotoxicity,71.6,,> 100,
CCN1C(=O)COc2ccc(S(=O)(=O)Nc3cccc(C)c3C)cc21,,,,95.9,,> 100,inhibition [10]: Active; Activity [11]: inactive
CCCN1C(=O)COc2ccc(-c3ccccc3)cc21,1.51,95.7,Active,63.2,56.6,> 100,inhibition [3]: Active
Cc1cccc(-c2ccc3c(c2)N(Cc2noc(C4CCC4)n2)C(=O)CO3)c1C,1.3,95.3,Active; Compound Showed Less Cytotoxicity,73.1,12.5,> 100,inhibition [8]: Active
Cc1c(Cl)cccc1-c1ccc2c(c1)N(Cc1noc(C3CCC3)n1)C(=O)CO2,1.5,120,Active; Compound Showed Less Cytotoxicity,79.7,,> 100,
CCCN1C(=O)COc2ccc(-c3cccc(OC(F)(F)F)c3)cc21,1.22,92.4,Active,75.3,24.3,> 100,inhibition [3]: Active
CCCN1C(=O)COc2ccc(S(=O)(=O)Nc3cccc(C)c3C)cc21,,,,72.3,56.3,> 100,inhibition [12]: Active; inhibition [3]: Active; Compound Showed Normal Functioning Of Lysosomes And Endosomal Trafficking; inhibition [10]: Active; inhibition [13]: Active; Compared With Chloroquine And Compound 1E; Activity [11]: Active
CCCN1C(=O)COc2ccc(-c3ccncc3)cc21,1.03,108,Active,106,,> 100,
Cc1cccc(-c2ccc3c(c2)N(Cc2noc(C4CCC4)n2)C(=O)CO3)c1Cl,1.45,117,Active; Compound Showed Less Cytotoxicity,80.5,,> 100,
CCCN1C(=O)COc2ccc(-c3cccc(C)c3C)cc21,1.23,77.7,Active,63,32.3,> 100,IC50 [14]: 42.2 µM; inhibition [3]: Active
CCCN1C(=O)COc2ccc(-c3ccccc3O)cc21,1.26,104,Active,82.5,,> 100,
CO/C1=C\C(C)=C\[C@@H](C)[C@@H](O)[C@@H](C)C/C(C)=C/C=C/[C@H](OC)[C@@H]([C@@H](C)[C@@H](O)[C@H](C)[C@@]2(O)C[C@@H](O)[C@H](C)[C@@H](C(C)C)O2)OC1=O,,,,,,,inhibition [15]: inactive
CCCN1C(=O)COc2ccc(-c3cccc(C)c3)cc21,1.59,91.5,Active,57.3,42,> 100,inhibition [3]: Active
C[C@@H]1COCCN1c1cc(=O)n2c(n1)N(Cc1cncc(Cl)c1)[C@H](C(F)(F)F)CC2,,,,,,,inhibition [9]: inactive
CCCN1C(=O)COc2ccc(-c3ccccc3OC)cc21,1.26,100,Active,79.5,,> 100,
O=C1COc2ccc(-c3cccc(Cl)c3)cc2N1Cc1noc(C2CCC2)n1,1.32,116,Active,85.1,,> 100,inhibition [8]: inactive
O=C1COc2ccc(-c3ccccc3Cl)cc2N1Cc1noc(C2CCC2)n1,1.17,106,Active; Compound Showed Less Cytotoxicity,89.9,,> 100,
O=C1COc2ccc(-c3cccc(Cl)c3Cl)cc2N1Cc1noc(C2CCC2)n1,1.17,101,Active; Compound Showed Less Cytotoxicity,86.8,,> 100,
Cc1cccc(NS(=O)(=O)c2ccc3c(c2)N(Cc2noc(C4CCC4)n2)C(=O)CO3)c1C,,,,60.6,33.9,50,
CCN(CC)CCCC(C)Nc1ccnc2cc(Cl)ccc12 (stereo not given),,,,,,,inhibition [16]: inactive
O=C1COc2ccc(Nc3ccc(Cl)cc3Cl)cc2N1Cc1noc(C2CCC2)n1,1.29,102,,79.1,,50,
CCCN1C(=O)COc2ccc(-c3ccc(F)cc3F)cc21,1.32,84.2,Active,63.8,,> 100,
